EP0321274A1, “Derivatives of thioformamide” (RHONE POULENC RORER LIMITED, priority 1987, dated 1989)

Key:
[1] = system: isolated rat aorta; assay: Test A: activity against contractions induced by low K⁺ concentrations (20 mM K⁺) in the isolated rat aorta; format: cell-based; settings: concentration reducing the 20 mM K⁺-induced contraction by 90%; rat thoracic aorta strips denuded of endothelium; read-out: Activity Test A EC₉₀
Protocol: The test methods used were adapted from those described by Winslow et al [Eur.J.Pharmacol., 131, 219-228 (1986)] and Karaki [J.Pharmacol. Methods, 18, 1-21 (1987)] for differentiating vaso-relaxant activity.
Test A : Activity against contractions induced by low K⁺ concentrations in the isolated rat aorta
Thoracic aorta was removed from rats and transverse strips, denuded of endothelium, were suspended in a bath containing Krebs solution. The tension was recorded and a contraction induced by addition of 20 mM K⁺ (potassium ion) to the bathing solution. The test compound was added to the bath as a solution in increasing cumulative concentration. The concentration in the bathing solution of the test compound which reduced the K⁺-induced contraction by 90% was determined and expressed in µM as the effective concentration (EC₉₀), given in Table I.

[2] = system: histamine-induced bronchospasm; assay: Histamine-induced bronchospasm in the anaesthetised guinea pig (method of Dixon and Brodie), nebulised aerosol; format: in vivo; settings: nebulised aerosol for 1 minute, control 80
Protocol: (§1) In in vivo tests in the anaesthetised guinea pig, performed according to the method of Dixon W.E. and Brodie T.G., J. Physiol 29, pp 97-173 (1903), Compound BD affected histamine-induced bronchospasm and blood pressure as follows:-
(§2) A nebulised aerosol generated from an aqueous solution having a given concentration was administered for 1 minute to the anaesthetised guinea pigs.

[3] = system: blood pressure; assay: Blood pressure in the anaesthetised guinea pig (same experiment as bronchospasm test); format: in vivo; settings: nebulised aerosol for 1 minute, control 42
Protocol: as §1, §2

Molecule	EC90 [1] [nM]	also measured
CNC(=S)C1(c2cnc3ccccc3c2)CCCCC1=O (racemic) [Compound B, (±)-N-methyl-2-oxo-1-(3-quinolinyl)cyclohexanecarbothioamide]	70	–
(±)-trans-N-methyl-2-hydroxy-1-(3-pyridyl)cyclohexanecarbothioamide	7500	–
CNC(=S)C1(c2cccnc2)CCC/C1=N\OCc1ccc(F)cc1 (racemic) [Compound BD, (±)-anti-N-methyl-2-(4-fluorobenzyloxyimino)-1-(3-pyridyl)cyclopentanecarbothioamide]	–	% maximum bronchospasm ([2]; 100µg/ml aqueous solution): 76%; % maximum bronchospasm ([2]; 300µg/ml aqueous solution): 46%; % maximum bronchospasm ([2]; 1000µg/ml aqueous solution): 22%; B.P. ([3]; 100µg/ml aqueous solution): 49 mmHg; B.P. ([3]; 300µg/ml aqueous solution): 43 mmHg; B.P. ([3]; 1000µg/ml aqueous solution): 40 mmHg
(±)-cis-N-methyl-2-hydroxy-1-(3-pyridyl)cyclohexanecarbothioamide	24000	–
CNC(=S)C1(c2cccnc2)CCCCC1=O (racemic) [Compound A, (±)-N-methyl-2-oxo-1-(3-pyridyl)cyclohexanecarbothioamide]	800	–

Continued, in another order:

EC90 [1] [nM]	Molecule	also measured
10	CNC(=S)C1(c2cccnc2)CCCC/C1=N\OCc1ccccc1 (racemic) [Compound H, (±)-anti-N-methyl-2-benzyloxyimino-1-(3-pyridyl)cyclohexanecarbothioamide]	–
300	CNC(=S)[C@]1(c2cnc3ccccc3c2)CCCC/C1=N\N1CCC[C@H]1COC [Compound J, (2S)-anti-2-(methoxymethyl)-1-[2′-(3-quinolinyl)-2′-methylthiocarbamoylcyclohexylideneamino]pyrrolidine]	–
400	CNC(=S)C1(c2cncc(Br)c2)CCCCC1=O (racemic) [Compound S, (±)-N-methyl-2-oxo-1-(5-bromopyrid-3-yl)cyclohexanecarbothioamide]	–
300	CCNC(=S)C1(c2cccnc2)CCCCC1=O (racemic) [T, (±)-N-ethyl-2-oxo-1-(3-pyridyl)cyclohexanecarbothioamide]	–
300	CNC(=S)C1(c2cccnc2)CCCC/C1=N\OC (racemic) [Compound G, (±)-anti-N-methyl-2-methoxyimino-1-(3-pyridyl)cyclohexanecarbothioamide]	–
240	CNC(=S)C1(c2ccc(Cl)nc2)CCCCC1=O (racemic) [Compound R, (±)-N-methyl-2-oxo-1-(6-chloropyrid-3-yl)cyclohexanecarbothioamide]	–
